Assay results published in EPA's ToxRefDB 2.

Legend:
[1] = test system: rat; details: Carcinogenicity, fischer, Oral, Feed, dose end: 107 week, group: systemic
[2] = test system: mouse; details: Carcinogenicity, b6c3f1, Oral, Feed, dose end: 100 week, group: systemic
[3] = test system: mouse; details: Carcinogenicity, b6c3f1, Oral, Feed, dose end: 80 week, group: systemic
[4] = test system: rat; details: Subchronic oral toxicity in rodents, fischer, Feed, dose end: 26 week, group: systemic
[5] = test system: rat; details: Carcinogenicity, fischer, Oral, Feed, dose end: 78 week, group: systemic
[6] = test system: rat; details: Peri- and post-natal toxicity study (Segment III); sprague dawley; Injection; Subcutaneous; dose end: 22 PND; group: parental; systemic / in life observation / body weight / body weight
[7] = test system: rat; details: Neurotoxicity screening battery, sprague dawley, Injection, Subcutaneous, dose end: 22 week, group: cannot be grouped
[8] = test system: rat; details: Prenatal developmental toxicity study; sprague dawley; Injection; Subcutaneous; dose end: 20 GD; group: maternal; reproductive / reproductive performance / premature delivery / premature delivery + systemic / in life observation / body weight / body …
[9] = test system: rat; details: Sub-acute repeat dose toxicity, Oral, Gavage/Intubation, dose end: 4 day, group: systemic
[10] = test system: rat; details: Sub-acute repeat dose toxicity, Oral, Gavage/Intubation, dose end: 4 day, group: systemic; remark: listed apart in the source
[11] = test system: rat; details: Sub-acute repeat dose toxicity, Oral, Gavage/Intubation, dose end: 4 day, group: systemic; remark: listed apart in the source
[12] = test system: rat; details: Sub-acute repeat dose toxicity, Oral, Gavage/Intubation, dose end: 4 day, group: systemic; remark: listed apart in the source
[13] = test system: rat; details: Sub-acute repeat dose toxicity, sprague dawley, Oral, Gavage/Intubation, dose end: 4 week, group: systemic
[14] = test system: dog; details: Sub-acute repeat dose toxicity; beagle; Oral; Gavage/Intubation; dose end: 4 week; group: systemic; systemic / clinical chemistry / alanine aminotransferase (alt/sgpt) / alanine aminotransferase (alt/sgpt) + systemic / clinical chemistry / …
[15] = systemic / in life observation / body weight / body weight + systemic / pathology microscopic / mammary gland / dilatation + systemic / …
[16] = systemic / pathology microscopic / mammary gland / hyperplasia
[17] = systemic / pathology gross / full gross necropsy / lymphoma malignant + systemic / in life observation / body weight / body weight gain
[18] = systemic / pathology gross / full gross necropsy / lymphoma malignant + systemic / in life observation / body weight / body weight gain + …
[19] = systemic / pathology microscopic / blood / lymphoma malignant + systemic / pathology microscopic / liver / hepatocellular carcinoma
[20] = systemic / pathology microscopic / liver / hepatocellular carcinoma
[21] = systemic / clinical chemistry / glucose / glucose + systemic / clinical chemistry / potassium / potassium + systemic / clinical chemistry / …
[22] = systemic / hematology / hematocrit (hct) / hematocrit (hct) + systemic / hematology / leukocyte (wbc) count differential / leukocyte (wbc…
[23] = systemic / in life observation / body weight / body weight + systemic / in life observation / mortality / mortality + systemic / pathology …
[24] = systemic / pathology microscopic / liver / hepatocellular carcinoma + systemic / pathology microscopic / liver / neoplastic nodule + …
[25] = reproductive / reproductive performance / estrous cycle / periodicity + systemic / clinical chemistry / corticosterone / corticosterone + …
[26] = systemic / clinical chemistry / corticosterone / corticosterone + systemic / in life observation / body weight / body weight gain
[27] = systemic / in life observation / clinical signs / abnormal respiratory sounds + systemic / in life observation / clinical signs / fur (…
[28] = systemic / pathology microscopic / liver / necrosis
[29] = systemic / organ weight / liver / absolute
[30] = systemic / organ weight / liver / absolute + systemic / pathology microscopic / liver / necrosis
[31] = systemic / clinical chemistry / alanine aminotransferase (alt/sgpt) / alanine aminotransferase (alt/sgpt) + systemic / clinical chemistry / …
[32] = systemic / organ weight / liver / absolute + systemic / organ weight / liver / relative to body weight + systemic / organ weight / liver / …

## [Ca+2].[N-]=C=[N-] [Calcium cyanamide]
[1]; [15]
  LOAEL: > 10 mg/kg/day
  NOAEL: ≥ 10 mg/kg/day
[1]; [16]
  LEL: 5 mg/kg/day
  NEL: < 5 mg/kg/day
[2]; [17]
  LEL: 75 mg/kg/day
  NEL: < 75 mg/kg/day
[2]; [18]
  LOAEL: > 300 mg/kg/day
  NOAEL: ≥ 300 mg/kg/day

## Nc1ccc2c(c1)C(=O)c1ccccc1C2=O [2-Aminoanthraquinone]
[3]; [19]
  LOAEL: > 1500 mg/kg/day
  NOAEL: ≥ 1500 mg/kg/day
[3]; [20]
  LEL: 750 mg/kg/day
  NEL: < 750 mg/kg/day
[4]; [21]
  LEL: 500 mg/kg/day
  NEL: < 500 mg/kg/day
[4]; [22]
  LOAEL: > 1000 mg/kg/day
  NOAEL: ≥ 1000 mg/kg/day
[5]; [23]
  LEL: 100 mg/kg/day
  NEL: < 100 mg/kg/day
[5]; [24]
  LOAEL: > 345 mg/kg/day
  NOAEL: ≥ 345 mg/kg/day

## C[C@]12C[C@H](O)[C@H]3[C@@H](CCC4=CC(=O)CC[C@@]43C)[C@@H]1CC[C@@H]2C(=O)CO [Corticosterone]
[6]
  LEL: 40 mg/kg/day
  LOAEL: > 40 mg/kg/day
  NEL: < 40 mg/kg/day
  NOAEL: ≥ 40 mg/kg/day
[7]; [25]
  LOAEL: > 40 mg/kg/day
  NOAEL: ≥ 40 mg/kg/day
[7]; [26]
  LEL: 10 mg/kg/day
  NEL: < 10 mg/kg/day
[8]
  LEL: 40 mg/kg/day
  LOAEL: > 40 mg/kg/day
  NEL: < 40 mg/kg/day
  NOAEL: ≥ 40 mg/kg/day

## CNCc1ccc(S(C)(=O)=O)cc1Oc1ccc(Cl)c(C)c1C
[9]; [27]
  LOAEL: > 500 mg/kg/day
  NOAEL: ≥ 500 mg/kg/day
[9]; [28]
  LEL: 30 mg/kg/day
  NEL: < 30 mg/kg/day
[10]; [27]
  LOAEL: > 500 mg/kg/day
  NOAEL: ≥ 500 mg/kg/day
[10]; [28]
  LEL: 30 mg/kg/day
  NEL: < 30 mg/kg/day
[11]; [27]
  LOAEL: > 500 mg/kg/day
  NOAEL: ≥ 500 mg/kg/day
[11]; [28]
  LEL: 30 mg/kg/day
  NEL: < 30 mg/kg/day
[12]; [29]
  LOAEL: > 100 mg/kg/day
  NOAEL: ≥ 100 mg/kg/day
[12]; [30]
  LEL: 30 mg/kg/day
  NEL: < 30 mg/kg/day

## O=C(NC(=O)c1cc(F)c(F)cc1Cl)Nc1cc(F)ccc1N1CCC(C(=O)O)CC1 [AVE2865]
[13]; [31]
  LOAEL: 35 mg/kg/day
  NOAEL: 5 mg/kg/day
[13]; [32]
  LEL: 5 mg/kg/day
  NEL: < 5 mg/kg/day
[14]
  LEL: 1 mg/kg/day
  LOAEL: > 10 mg/kg/day
  NEL: < 1 mg/kg/day
  NOAEL: ≥ 10 mg/kg/day
